Experiment: Study KAR5585-101 Part 1 (SAD): plasma pharmacokinetics after a single oral dose of KAR5585, fasting and fed (incl. dose proportionality and food effect)
Conditions: for half-life / AUC / AUC(0-inf) / Cmax / Vd/F / Tmax: human, po; for AUC: AUC0-tau; for Vd/F: Vz/F; for Tmax: Median
[1] = 100 mg KAR5585 single oral, fasted, Cohort 1, Geo. Mean
[2] = 100 mg KAR5585 single oral, fasted, Cohort 1, Mean
[3] = 200 mg KAR5585 single oral, fasted, Cohort 2, Geo. Mean
[4] = 200 mg KAR5585 single oral, fasted, Cohort 2, Mean
[5] = 400 mg KAR5585 single oral, fasted, Cohort 3A, Geo. Mean
[6] = 400 mg KAR5585 single oral, fasted, Cohort 3A, Mean
[7] = 400 mg KAR5585 single oral, fed, Cohort 3B, Geo. Mean
[8] = 400 mg KAR5585 single oral, fed, Cohort 3B, Mean
[9] = 700 mg KAR5585 single oral, fasted, Cohort 4, Geo. Mean
[10] = 700 mg KAR5585 single oral, fasted, Cohort 4, Mean
[11] = 1200 mg KAR5585 single oral, fasted, Cohort 5, Geo. Mean
[12] = 1200 mg KAR5585 single oral, fasted, Cohort 5, Mean
[13] = 2000 mg KAR5585 single oral, fasted, Cohort 6, Geo. Mean
[14] = 2000 mg KAR5585 single oral, fasted, Cohort 6, Mean
[15] = 100 to 2000 mg KAR5585 single oral dose, fasting, plasma analyte = label
[16] = plasma, 100 mg, 100 mg KAR5585 single oral, fasted, Cohort 1, Geo. Mean
[17] = plasma, 100 mg, 100 mg KAR5585 single oral, fasted, Cohort 1, Mean
[18] = plasma, 200 mg, 200 mg KAR5585 single oral, fasted, Cohort 2, Geo. Mean
[19] = plasma, 200 mg, 200 mg KAR5585 single oral, fasted, Cohort 2, Mean

Protocol: Food effect was to be evaluated in Part 1, Period 2. Part 2 was permitted to begin before Part 1 was completed and, in each part, the data from each dose Cohort were to be reviewed for safety before the next dose Cohort was enrolled.
Part 1 had 6 Cohorts of 12 subjects each (for a total of 72 subjects) and Part 2 had 4 Cohorts of 12 subjects each (for a total of 48 subjects). In Part 1, the 12 subjects in Cohort 3 (400 mg)were studied twice, once under fasting conditions (Period 1) and once under fed conditions (Period 2) for food-effect assessment.
Pharmacokinetic data were to be summarized descriptively.

In the case of CCOC(=O)[C@@H]1CC2(CCN(c3cc(O[C@H](c4ccc(Cl)cc4-c4ccccc4)C(F)(F)F)nc(N)n3)CC2)CN1 [KAR5585, (S)-ethyl 8-(2-amino-6-((R)-1-(5-chloro-[1,1′-biphenyl]-2-yl)-2,2,2-trifluoroethoxy)pyrimidin-4-yl)-2,8-diazaspiro[4.5]decane-3-carboxylate], the AUC0-24/D [1] was 0.475 (hr*ng/ml)/mg, the C12 [1] was “BLQ” and the CL/F [1] was 2110 L/h. For the same compound, the Cmax/D [1] was 0.132 (ng/mL)/mg, the AUC0-24/D [2] was 0.496 (hr*ng/ml)/mg and the C12 [2] was “BLQ”. For the same compound, the CL/F [2] was 2210 L/h, the Cmax/D [2] was 0.139 (ng/mL)/mg and the AUC0-24/D [3] was 0.467 (hr*ng/ml)/mg. For the same compound, the C12 [3] was “BLQ”, the CL/F [3] was 2100 L/h and the Cmax/D [3] was 0.0875 (ng/mL)/mg. For the same compound, the AUC0-24/D [4] was 0.485 (hr*ng/ml)/mg, the C12 [4] was “BLQ” and the CL/F [4] was 2220 L/h. The Cmax/D [4] was 0.0961 (ng/mL)/mg, the AUC0-24/D [5] was 0.707 (hr*ng/ml)/mg and the CL/F [5] was 1390 L/h. For the same compound, the Cmax/D [5] was 0.105 (ng/mL)/mg, the AUC0-24/D [6] was 0.742 (hr*ng/ml)/mg and the CL/F [6] was 1480 L/h. For the same compound, the Cmax/D [6] was 0.132 (ng/mL)/mg, the AUC0-24/D [7] was 2.19 (hr*ng/ml)/mg and the CL/F [7] was 443 L/h. The Cmax/D [7] was 0.413 (ng/mL)/mg, the AUC0-24/D [8] was 2.21 (hr*ng/ml)/mg and the CL/F [8] was 449 L/h. The Cmax/D [8] was 0.422 (ng/mL)/mg, the AUC0-24/D [9] was 0.584 (hr*ng/ml)/mg and the CL/F [9] was 1700 L/h. The Cmax/D [9] was 0.136 (ng/mL)/mg, the AUC0-24/D [10] was 0.617 (hr*ng/ml)/mg and the CL/F [10] was 1810 L/h. The Cmax/D [10] was 0.142 (ng/mL)/mg, the AUC0-24/D [11] was 0.333 (hr*ng/ml)/mg and the CL/F [11] was 2960 L/h. For the same compound, the Cmax/D [11] was 0.0568 (ng/mL)/mg, the AUC0-24/D [12] was 0.378 (hr*ng/ml)/mg and the CL/F [12] was 3850 L/h. The Cmax/D [12] was 0.0692 (ng/mL)/mg, the AUC0-24/D [13] was 0.348 (hr*ng/ml)/mg and the CL/F [13] was 3000 L/h. The Cmax/D [13] was 0.0475 (ng/mL)/mg, the AUC0-24/D [14] was 0.403 (hr*ng/ml)/mg and the CL/F [14] was 3820 L/h. The Cmax/D [14] was 0.0522 (ng/mL)/mg, the “Dose proportionality power model, AUC0-12: Intercept estimate” value [15] was 1.51 and the “Dose proportionality power model, AUC0-inf: Intercept estimate” value [15] was 1.46. For the same compound, the “Dose proportionality power model, AUC0-tau: Intercept estimate” value [15] was 0.258, the “Dose proportionality power model, Cmax: Intercept estimate” value [15] was 0.534 and the half-life (in vivo, 200 mg) was 3.17 h. For the same compound, the AUC [16] was 27.4 ng·h/mL, the AUC [17] was 35 ng·h/mL and the AUC(0-inf) (plasma, 100 mg, AUC0-∞, 100 mg KAR5585 single oral, fasted, Cohort 1, Geo. Mean) was 47.5 ng·h/mL. For the same compound, the AUC(0-inf) (plasma, 100 mg, AUC0-∞, 100 mg KAR5585 single oral, fasted, Cohort 1, Mean) was 49.5 ng·h/mL, the Cmax [16] was 13.2 ng/mL and the Cmax [17] was 13.9 ng/mL. For the same compound, the Vd/F [16] was 5190 L, the Vd/F [17] was 5680 L and the half-life (plasma, 100 mg, t1 (t½, apparent terminal half-life), 100 mg KAR5585 single oral, fasted, Cohort 1, Geo. Mean) was 1.71 h. For the same compound, the half-life (plasma, 100 mg, t1 (t½, apparent terminal half-life), 100 mg KAR5585 single oral, fasted, Cohort 1, Mean) was 1.89 h, the Tmax (plasma, 100 mg, 100 mg KAR5585 single oral, fasted, Cohort 1) was 1.5 h and the AUC [18] was 52 ng·h/mL. For the same compound, the AUC [19] was 61.4 ng·h/mL, the AUC(0-inf) (plasma, 200 mg, AUC0-∞, 200 mg KAR5585 single oral, fasted, Cohort 2, Geo. Mean) was 95.3 ng·h/mL and the AUC(0-inf) (plasma, 200 mg, AUC0-∞, 200 mg KAR5585 single oral, fasted, Cohort 2, Mean) was 99.5 ng·h/mL. It also gave a Cmax [18] of 17.5 ng/mL, a Cmax [19] of 19.2 ng/mL and a Vd/F [18] of 9610 L. The Vd/F [19] was 10300 L, the half-life (plasma, 200 mg, t1 (t½, apparent terminal half-life), 200 mg KAR5585 single oral, fasted, Cohort 2, Mean) was 3.63 h and the Tmax (plasma, 200 mg, 200 mg KAR5585 single oral, fasted, Cohort 2) was 1.78 h. It also gave an AUC(0-inf) (plasma, 400 mg, AUC0-inf, Geometric Mean, Cohort 3A (Fasting), 400 mg KAR5585 single oral dose, fasting) of 288 ng·h/mL, an AUC(0-inf) (plasma, 400 mg, AUC0-inf, Geometric Mean, Cohort 3B (Fed), 400 mg KAR5585 single oral dose, fed) of 903 ng·h/mL and an AUC (plasma, 400 mg, 400 mg KAR5585 single oral, fasted, Cohort 3A, Geo. Mean) of 176 ng·h/mL.

From US20240041877A1, “DOSAGE REGIME AND METHOD FOR TREATING PULMONARY ARTERIAL HYPERTENSION” (Altavant Sciences GmbH, priority 2019, published 2024)
